Laboratory results published in patent publication US20100234238A1, “METHOD FOR PROFILING KINASE INHIBITORS” (Janssen Pharmaceutica N V, priority 2006, published 2010).

Tested on: tyrosine kinase activity in lysates prepared from cell lines
Test: PAMCHIP96 tyrosine peptide array profiling of lysates of 27 cell lines in absence or presence of MTKI
Assay type: biochemical
Conditions: 5 μM
Description: PAMGENE technology using the tyrosine peptide PAMCHIP96 allows the kinetic detection of the phosphorylation of 144 tyrosine peptides spotted onto a 3-dimensional porous well of a 96-well plate (www.pamgene.com). This technology can be used to measure the activity of purified kinases and the effects of kinase inhibitors thereon. Phosphotyrosine peptides are detected using a mix of fluorescently labeled anti-phosphotyrosine antibodies. Phosphorylation of peptides can be followed in real time due to the possibility of removing the reaction mix for a few seconds during the assay by a pumping mechanism to allow CCD camera detection of phosphopeptides bound to the fluorescent antibody. These consecutive datapoints (quantified spot images) generate a kinetic curve for each individual peptide, and allow for the calculation of initial velocities and endpoints associated with each individual peptide.
Cells cultured in appropriate medium in T175 flasks, treated with compound if necessary, are harvested at 70-90% confluency.
Media is removed, cells are washed with 10 ml ice cold PBS containing 0.1 mM NaVO4 and lysed in 1 ml of M-PER buffer (PIERCE) containing phosphatase and protease inhibitors (HALT, PIERCE). Cells are collected by scraping, and centrifuged for 10 minutes at 12 000×g. Supernatant lysates are filtered through a 0.2 micrometer filter (Anotop 0.2 μm anopore filter; Whatmann). Lysates are flash frozen in liquid nitrogen and stored at −80C.
Just prior to the PAMCHIP experiment, total protein content is quantitated in the lysates and lysates are diluted to 1 mg/ml in a total volume of 200 μl, with M-PER phosphatase and protease inhibitors (HALT, PIERCE). 10 μg of total lysate (corresponding to 10 μl) will be used per well on the PAMCHIP96.
To all 200 μl lysates 10 units of benzonase (Novagen) is added and lysates are further incubated for 30 min on ice and next centrifuged for 10 minutes at 12 000×g. The supernatant is then 1:1 diluted with compound or DMSO diluted to the appropriate concentration in water, and lysates are further incubated exactly 60 min on ice. Meanwhile, a PAMCHIP96 tyrosine peptide chip (PAMGENE) is blocked with 2% BSA (filtered through a 0.2 μm anopore filter; Whatmann) using the standard setting of a PAMSTATION96 (PAMGENE).
The composition of the kinase buffer is as follows: 1×ABL buffer (NEB), 0.5 mg/ml BSA (from 10 mg/ml NEB stock), 100 μM ATP (dissolved and diluted in 1×ABL buffer), 5 μg/ml PY20-FITC (ExAlpha Biologicals, azide-free preparation). A twofold concentrated kinase buffer is prepared chilled on ice, DMSO or compound is added as appropriate, and the solution is added 1:1 to the (compound treated) ice cold lysates, and immediately applied to a tyrosine peptide PAMCHIP96. The assay is run on a PAMSTATION96 according to standard procedures: after loading of the plate, solution is pumped once onto the wells, a first exposure is read (150 mSec) and then a kinetic reading program (reading every 5 min for 150 mSec) is run for 60 min. Lysates are run in 6 technical replicates for each condition; replicates are always applied horizontally next to each other to avoid vertical strip effects of the chip.
The data (spot images) are further quantified and linked to the peptide identities using EVOLVE PAMGRID software (PAMGENE). The quantified data are then fit to a curve using CurveFitHT software (PAMGENE) using the Vinip2 curve fitting algorithm, applied on the first 30 min of the assay; the initial velocity is derived at the first kinetic time point read. All subsequent data analyses were done on initial velocities (Vini) using the software packages Omniviz and R (Ihaka, R. and Gentlemen, R. (1996) R: a language for data analysis and graphics. J. Comput. Graph. Stat., 5, 299-314).
After replacing the Vini's lower than 0.1 by 0.1, all Vini's were log 2-transformed to approach normality.

With COc1cc2ncnc3c2cc1OCCCCCN(C)Cc1ccc(Br)cc1N3 [MTKI, 4,6-ethanediylidenepyrimido[4,5-b][6,1,12]benzoxadiazacyclopentadecine, 17-bromo-8,9,10,11,12,13,14,19-octahydro-20-methoxy-13-methyl-] the “ratio of initial velocity of peptide phosphorylation” value (shortened to “ratio”) (H3255 lysate, PECA1_706_718_Y713) was 0.68, the “ratio” value (H3255 lysate, PGFRB_768_780_Y771/Y775/Y778) was 0.12 and the “ratio” value (H3255 lysate, PLCG1_764_776_Y771) was 0.97. For the same compound, the “ratio” value (H3255 lysate, PRRX2_202_214_Y214) was 0.67, the “ratio” value (H3255 lysate, RASA1_453_465_Y460) was 0.65 and the “ratio” value (H3255 lysate, STAT2_683_695_Y690) was 0.72. For the same compound, the “ratio” value (H3255 lysate, SYN1_2_14_S9) was 0.70, the “ratio” value (H3255 lysate, TYRO3_679_691_Y686) was 0.47 and the “ratio” value (NCI-N87 lysate, CDK7_157_169_S164) was 0.82. For the same compound, the “ratio” value (NCI-N87 lysate, CREB1_122_134_Y134/S133) was 0.82, the “ratio” value (NCI-N87 lysate, DDR2_733_745_Y740) was 0.95 and the “ratio” value (NCI-N87 lysate, ENOG_37_49_Y43) was 0.91. The “ratio” value (NCI-N87 lysate, MK10_216_228_T221/Y223) was 0.73, the “ratio” value (NCI-N87 lysate, NCF1_313_325_S315/S320) was 0.89 and the “ratio” value (NCI-N87 lysate, NPT2_501_513_T508) was 0.88. For the same compound, the “ratio” value (NCI-N87 lysate, PECA1_706_718_Y713) was 0.82, the “ratio” value (NCI-N87 lysate, PGFRB_768_780_Y771/Y775/Y778) was 0.32 and the “ratio” value (NCI-N87 lysate, PLCG1_764_776_Y771) was 0.78. For the same compound, the “ratio” value (NCI-N87 lysate, PRRX2_202_214_Y214) was 0.82, the “ratio” value (NCI-N87 lysate, RASA1_453_465_Y460) was 0.59 and the “ratio” value (NCI-N87 lysate, STAT2_683_695_Y690) was 0.83. The “ratio” value (NCI-N87 lysate, SYN1_2_14_S9) was 0.75, the “ratio” value (NCI-N87 lysate, TYRO3_679_691_Y686) was 0.85 and the “ratio” value (SKBR3 lysate, CDK7_157_169_S164) was 0.97. The “ratio” value (SKBR3 lysate, CREB1_122_134_Y134/S133) was 0.99, the “ratio” value (SKBR3 lysate, DDR2_733_745_Y740) was 0.93 and the “ratio” value (SKBR3 lysate, MK10_216_228_T221/Y223) was 0.68. The “ratio” value (SKBR3 lysate, NCF1_313_325_S315/S320) was 0.94, the “ratio” value (SKBR3 lysate, NPT2_501_513_T508) was 0.77 and the “ratio” value (SKBR3 lysate, PECA1_706_718_Y713) was 0.68. For the same compound, the “ratio” value (SKBR3 lysate, PLCG1_764_776_Y771) was 0.75, the “ratio” value (SKBR3 lysate, PRRX2_202_214_Y214) was 0.75 and the “ratio” value (SKBR3 lysate, RASA1_453_465_Y460) was 0.88. For the same compound, the “ratio” value (SKBR3 lysate, STAT2_683_695_Y690) was 0.81, the “ratio” value (SKBR3 lysate, SYN1_2_14_S9) was 1.03 and the “ratio” value (SKBR3 lysate, TYRO3_679_691_Y686) was 0.90. The “ratio” value (SNU484 lysate, CDK7_157_169_S164) was 0.67, the “ratio” value (SNU484 lysate, CREB1_122_134_Y134/S133) was 0.70 and the “ratio” value (SNU484 lysate, DDR2_733_745_Y740) was 0.75. The “ratio” value (SNU484 lysate, ENOG_37_49_Y43) was 0.68, the “ratio” value (SNU484 lysate, MK10_216_228_T221/Y223) was 0.72 and the “ratio” value (SNU484 lysate, NCF1_313_325_S315/S320) was 0.80. The “ratio” value (SNU484 lysate, NPT2_501_513_T508) was 0.85, the “ratio” value (SNU484 lysate, PECA1_706_718_Y713) was 0.64 and the “ratio” value (SNU484 lysate, PLCG1_764_776_Y771) was 0.70. For the same compound, the “ratio” value (SNU484 lysate, PRRX2_202_214_Y214) was 0.67, the “ratio” value (SNU484 lysate, RASA1_453_465_Y460) was 0.58 and the “ratio” value (SNU484 lysate, STAT2_683_695_Y690) was 0.73. For the same compound, the “ratio” value (SNU484 lysate, SYN1_2_14_S9) was 0.67 and the “ratio” value (SNU484 lysate, TYRO3_679_691_Y686) was 0.85.
